# Measured values published in ChEMBL document CHEMBL4196094, “Structure-based design of bacterial transglycosylase inhibitors incorporating biphenyl, amine linker and 2-alkoxy-3-phosphorylpropanoate moieties” (Eur J Med Chem, 2018).
# pIC50: −log10 of the molar value.
# Assays:
# [1] = molecular target: T1, Penicillin-binding protein 1B (Acinetobacter baumannii) (UniProt G1C7A4); experiment: Inhibition of Acinetobacter baumannii PBP1b transglycosylase activity at 500 uM using NBD-lipid 2 as substrate after 2 hrs by muramidase enzyme coupled HPLC analysis relative to control
# T1 sequence (whole entry): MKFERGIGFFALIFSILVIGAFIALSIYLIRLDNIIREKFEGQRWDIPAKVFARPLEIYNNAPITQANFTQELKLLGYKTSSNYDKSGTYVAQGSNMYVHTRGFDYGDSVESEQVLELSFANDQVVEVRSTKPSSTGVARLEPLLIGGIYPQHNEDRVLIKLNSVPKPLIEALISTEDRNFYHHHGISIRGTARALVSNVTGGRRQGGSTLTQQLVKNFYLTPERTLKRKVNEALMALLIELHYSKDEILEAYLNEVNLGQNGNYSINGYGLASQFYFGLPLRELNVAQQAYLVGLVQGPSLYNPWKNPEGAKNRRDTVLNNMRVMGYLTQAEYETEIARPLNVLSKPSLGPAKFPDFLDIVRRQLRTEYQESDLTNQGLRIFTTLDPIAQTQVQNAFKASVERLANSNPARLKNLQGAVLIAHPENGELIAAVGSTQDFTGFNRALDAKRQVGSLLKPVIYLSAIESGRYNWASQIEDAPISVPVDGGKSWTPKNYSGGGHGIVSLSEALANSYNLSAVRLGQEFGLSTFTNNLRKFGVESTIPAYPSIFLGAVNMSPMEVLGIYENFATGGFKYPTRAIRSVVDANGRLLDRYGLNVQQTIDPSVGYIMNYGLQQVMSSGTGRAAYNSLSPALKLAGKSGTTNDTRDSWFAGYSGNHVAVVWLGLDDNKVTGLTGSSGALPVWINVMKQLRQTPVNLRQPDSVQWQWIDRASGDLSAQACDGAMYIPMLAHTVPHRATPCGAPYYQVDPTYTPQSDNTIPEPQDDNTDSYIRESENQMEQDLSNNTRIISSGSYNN
# [2] = tested on: Staphylococcus aureus; experiment: Antibacterial activity against Staphylococcus aureus after 16 to 18 hrs; format: functional
# [3] = molecular target: T1, Penicillin-binding protein 1B (Acinetobacter baumannii); experiment: Inhibition of Acinetobacter baumannii PBP1b transglycosylase activity at 200 uM using NBD-lipid 2 as substrate after 2 hrs by muramidase enzyme coupled HPLC analysis relative to control
# [4] = molecular target: T2, Penicillin-binding protein 1B (Acinetobacter baumannii, UniProt G1C7A4); experiment: Inhibition of Acinetobacter baumannii PBP1b transglycosylase activity using NBD-lipid 2 as substrate after 2 hrs by muramidase enzyme coupled HPLC analysis
# T2 sequence (G1C7A4 whole entry): T1 sequence (whole entry)
# [5] = molecular target: T1, Penicillin-binding protein 1B (Acinetobacter baumannii); experiment: Inhibition of Acinetobacter baumannii PBP1b transglycosylase activity at 1 uM using NBD-lipid 2 as substrate after 2 hrs by muramidase enzyme coupled HPLC analysis relative to control
inhibition [1] [%],MIC95 [2] [µM],SMILES,further results
< 5,,CCCCCCCCCCCCn1cc(CO[C@H](CP(=O)(O)OCCCNC(=O)c2ccc(-c3ccccc3)cc2)C(=O)OCC)nn1,
70,,CCCCCCCCCCCCn1cc(CO[C@H](CP(=O)(O)OCCCN(Cc2ccc(-c3ccccc3)cc2)C(=O)OCC(Cl)(Cl)Cl)C(=O)OCC)nn1,
< 5,,CCCCCCCCCCCCn1cc(CO[C@H](CP(=O)(O)OCCCN(Cc2ccc(-c3ccccc3)cc2)C(=O)OCC(Cl)(Cl)Cl)C(=O)O)nn1,
< 5,,CCCCCCCCCCCCn1cc(CO[C@H](CP(=O)(O)OCCCNC(=O)c2ccc(-c3ccccc3)cc2)C(=O)O)nn1,
33,,CCCCCCCCCCCCn1cc(CO[C@H](CP(=O)(O)OCCCN(Cc2ccc(-c3ccccc3)cc2)C(=O)OC(C)(C)C)C(=O)OCC)nn1,
55,6.3,CCCCCCCCCCCCn1cc(CO[C@H](CP(=O)(O)OCCCNCc2ccc3ccccc3c2)C(=O)OCC)nn1,
,6.3,CCCCCCCCCCCCn1cc(CO[C@H](CP(=O)(O)OCCNCc2ccc(-c3ccccc3)cc2)C(=O)OCC)nn1,inhibition [3]: 99%; pIC50 [4]: 3.80
,6.3,CCCCCCCCCCCCn1cc(CO[C@H](CP(=O)(O)OCCCN(C)Cc2ccc(-c3ccccc3)cc2)C(=O)OCC)nn1,inhibition [3]: 99%; pIC50 [4]: 3.82
48,,CCCCCCCCCCCCn1cc(CO[C@H](CP(=O)(O)OCCCNCc2ccc3ccccc3c2)C(=O)O)nn1,
,1.4,CC1(C)S[C@@H]2[C@H](NC(=O)[C@H](N)c3ccccc3)C(=O)N2[C@H]1C(=O)O [AMPICILLIN],
,,C=C(C/C=C(\C)CCC=C(C)C)CCC(C)(C)/C=C/CC/C(C)=C\CO[C@H](COP(=O)(O)O[C@H]1O[C@H](C(N)=O)[C@@](C)(O)[C@H](OC(N)=O)[C@H]1O[C@@H]1O[C@H](CO[C@@H]2O[C@H](CO)[C@@H](O)[C@H](O)[C@H]2O)[C@@H](O[C@@H]2O[C@H](C)[C@@H](O[C@@H]3O[C@H](C(=O)NC4=C(O)CCC4=O)[C@H](O)[C@H](O)[C@H]3O)[C@H](O)[C@H]2NC(C)=O)[C@H](O)[C@H]1NC(C)=O)C(=O)O,inhibition [5]: 100%
90,6.3,CCCCCCCCCCCCn1cc(CO[C@H](CP(=O)(O)OCCCNCc2ccc(-c3ccccc3)cc2)C(=O)OCC)nn1,inhibition [3]: 34%; pIC50 [4]: 3.63
,> 400,CCCCCCCCCCCCn1cc(CO[C@H](CP(=O)(O)OCCCN(Cc2ccc(-c3ccccc3)cc2)Cc2ccc(-c3ccccc3)cc2)C(=O)OCC)nn1,inhibition [3]: 99%; pIC50 [4]: 4.06
13,,CCCCCCCCCCCCn1cc(CO[C@H](CP(=O)(O)OCCCNCc2ccc(-c3ccccc3)cc2)C(=O)O)nn1,
